The values that follow come from PMC2841005 (Developmental and comparative immunology, 2010).

Format in all cases: cell-based
Test [1] concerns Gram-negative and Gram-positive bacterial strains. As to the kind of experiment: Antibacterial activity against the panel of strains, broth micro-dilution assay. (In general: In broth dilution the organism is exposed to a series of concentrations in liquid medium.)
The test system of a further test is bacteria. Briefly: Antibacterial test of the first synthetic 27-residue repeat peptide. The note with it: data not shown.
Another test deals with E. coli O157:H7. Briefly: MIC, broth micro-dilution assay.

“ESGNEPLWLYQGDNIPKAPSTAEHPFLPSIIDDVKFNPDRRYA [LP2A]”: the “Antibacterial activity against the bacterial strains tested (in words)” value (from here on “Antibacterial activity”) in test [1] is “did not affect the bacterial growth”.
Take “ESGNEPLWLYQGDNIPKAPSTAEHPFLPSIIDDVKFNPDRRYAR [LP2]”: the “Antibacterial activity” value in test [1] is “did not exhibit antimicrobial activity”.
RSVETLASQEHLSSLPMDSQETLLRGT: the “Killing of bacteria (in words)” value in the test with bacteria is on record as “did not kill any bacteria”.
As for “SLGTPDHYHGGRHSISRGSQSTGPTHPGYNRRNA [LP3A]”, in the test on E. coli O157:H7, the “Activity against E. coli O157:H7 (in words)” value was “inactive”. Moreover, the “Antibacterial activity” value in test [1] is “inactive”.
As to “SLGTPDHYHGGRHSISRGSQSTGPTHPGYNRRNAR [LP3]”, in the test with E. coli O157:H7, the “Activity against E. coli O157:H7 (in words)” value is recorded as “low activity”. The “Antibacterial activity” value in test [1] is “active against bacteria”.
In the case of SVETLASQEHLSSLPMDSQETLLRGT [LP4A], the “Antibacterial activity” value in test [1] is “inactive”.
In the case of SVETLASQEHLSSLPMDSQETLLRGTR [LP4], the “Antibacterial activity” value in test [1] was “no activity”.
